Results published in patent US5455228A, “Peptidase resistant thrombin receptor peptide ligand” (The Research Foundation of State University of New York, priority 1993, dated 1995).
One block for each compound: values may come before it. Numbered stars: 1 amine (or outer) side, 2 acyl side, 3 side chain; on linkers, the order of the positions; unused ones are H or OH. Square brackets hold non-standard residues; d marks the D form. Ends that are not written are not given here. Peptide text beside a SMILES is read from it. ξ: configuration not given here. ξIsoserine = O=C(C(O)CN[*:1])[*:2]

Assays:
plasma aminopeptidase M [1] = molecular target: T1, plasma aminopeptidase M (Homo sapiens, UniProt P15144); experiment: Loss of peptide platelet aggregating activity during plasma incubation; type: in vitro ADME; conditions: for aggregating activity after plasma incubation: 125 μM peptide; for platelet aggregating activity when incubated in plasma: 2 mM peptide mixed 1:1 with platelet-poor plasma, up to 2 hours
T1 construct: from tissue; host or cells: human citrated platelet-poor plasma
Protocol: (§1) Platelet Aggregation. Platelet Rich Plasma (hereinafter "PRP") was obtained from human blood anticoagulated with sodium citrate (0.01 volume of 40% trisodium citrate) or acid-citrate-dextrose (hereinafter "ACD") solution A (ACD-A; 8.5 mL of blood: 1.5 mL of ACD-A) by centrifugation at 700 g for 3.5 min. at 22° C. Platelet-poor plasma (hereinafter "PPP") was obtained by centrifuging the PRP at 2000g for 8 min. at 22° C. The pH of the citrated PRP after preparation was about 7.7 whereas the pH of the ACD-A PRP was about 7.0. The pH of the PRP was adjusted, when necessary with 1M NaOH or 1M HCl and maintained at about 7.70. Platelet aggregation was performed in a dual-channel aggregometer (Chronolog, Hayertown, Pa.) using matched stir bars.
[…] Aliquots were removed at 15, 30, 45, 60 and 120 minutes and analyzed for both the ability to aggregate platelets and peptide cleavage.

plasma aminopeptidase M [2] = molecular target: T1, plasma aminopeptidase M; experiment: Peptide digestion during incubation with platelet-poor plasma, HPLC; type: in vitro ADME
Protocol: (§2) Peptide Digestion Studies. For T-11 amino acids 1 to 11 of SEQ ID NO:1 and (D-Ser)T-11 SEQ ID NO:11 digestions, 0.11 volume of 20 mM peptide in 0.15M NaCl, 0.01 Tris/HCl, pH 7.4, was added to citrated platelet-poor plasma to achieve a final concentration of 2 mM. Samples were incubated for 2 hours at 37° C. and then the plasma proteins were precipitated with 9-10% trichloroacetic acid at 4° C. for at least 30 min. After centrifugation at 12000 g at 22° C. for 3 min., the supernatant was analyzed to determine peptide cleavage by reverse-phase HPLC (C8; Applied Biosystems 300 RP Aquapore; 220×4.6-mm column); elution was with 0.1% trifluoroacetic acid with a 0-60% acetonitrile gradient.
(§3) To determine the amino acid sequence of the digestion products of T-11 amino acids 1 to 11 of SEQ ID NO:1 and (D-Ser)T-11 SEQ ID NO:11 and to assess their ability to aggregate platelets, the peptide (2 mM) was incubated with citrated PPP for 2 hours at 37° C., plasma proteins were precipitated with trichloroacetic acid, and the supernatant after centrifugation was both analyzed and fractionated on the analytical reverse-phase column. Peak fractions were dried in a vacuum centrifuge (Speed-Vac, Savant, Farmingdale, N.Y.) and dissolved in either buffer (0.15M NaCl and 0.01 M Tris/HCl, pH 7.4) for aggregation studies or 0.1% trifluoroacetic acid for amino acid analysis. Quantitative amino acid analysis of the peptides was performed with commercial reagents and equipment (Pico-Tag workstation and C-18 Pico-Tag column; Waters-Millipore, Bedford, Mass.). The amino acid sequence could then be inferred from the amino acid content of each peak.
(§4) For the Ser-Phe-Leu-Leu-Arg-Asn (SFLLRN) amino acids 1 to 6 of SEQ ID NO:1 and (iso-Ser)-Phe-Leu-Leu-Arg-Asn ((iso-S))FLLRN SEQ ID NO:7 studies, 2 mM peptide in buffer (0.15 M NaCl, 0.01 M Tris/HCl, pH 7.4) was mixed with an equal volume of citrated platelet-poor plasma (1:1) and separately with an equal volume of buffer and incubated at 37° C for variable periods of time. Aliquots were removed at 15, 30, 45, 60 and 120 minutes and analyzed for both the ability to aggregate platelets and peptide cleavage.
(§5) For peptide digestion studies for SFLLRN amino acids 1 to 6 of SEQ ID NO:1 and (iso-S)FLLRN SEQ ID NO:7, samples were removed at various times and analyzed for peptide digestion by HPLC after precipitating the plasma proteins with trichloroacetic acid.

[3] = molecular target: T2, thrombin receptor on platelets (Homo sapiens, UniProt P25116); experiment: Dose response of peptide-induced platelet aggregation in platelet-rich plasma; type: cell-based
T2 construct: Citrated platelet-rich plasma (PRP; 307,000 platelets/μl, pH 7.0; 0.45 ml) was stirred in a cuvette at 37° C; endogenous in cells; host or cells: human platelets in citrated platelet-rich plasma
T2 sequence (P25116 22-425): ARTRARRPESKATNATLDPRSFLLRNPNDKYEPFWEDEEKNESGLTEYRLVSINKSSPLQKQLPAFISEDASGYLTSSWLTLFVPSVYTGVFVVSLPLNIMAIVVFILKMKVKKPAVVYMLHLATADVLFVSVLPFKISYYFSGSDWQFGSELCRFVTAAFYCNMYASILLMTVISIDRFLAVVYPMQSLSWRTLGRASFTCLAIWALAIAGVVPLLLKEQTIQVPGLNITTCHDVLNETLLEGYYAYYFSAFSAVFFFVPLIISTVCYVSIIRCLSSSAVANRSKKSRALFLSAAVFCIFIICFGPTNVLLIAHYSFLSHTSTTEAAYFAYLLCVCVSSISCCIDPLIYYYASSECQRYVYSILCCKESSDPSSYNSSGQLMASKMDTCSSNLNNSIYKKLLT
Protocol: as §1
Dose Response of Peptide-Induced Aggregation. Citrated platelet-rich plasma (PRP; 307,000 platelets/μl, pH 7.0; 0.45 ml) was stirred in a cuvette at 37° C. and then […] of Ser-Phe-Leu-Leu-Arg-Asn-Pro-Asn-Asp-Lys-Tyr (T-11) amino acids 1 to 11 of SEQ ID NO:1, (D-Ser)-Phe-Leu-Leu-Arg-Asn-Pro-Asn-Asp-Lys-Tyr ((DS)T-11) SEQ ID NO:11, Ser-Phe-Leu-Leu-Arg-Asn amino acids 1 to 6 of SEQ ID NO:1 or (iso-Ser)-Phe-Leu-Leu-Arg-Asn SEQ ID NO:7 peptide was added to achieve the final concentration as follows: Ser-Phe-Leu-Leu-Arg-Asn-Pro-Asn-Asp-Lys-Tyr amino acids 1 to 11 of SEQ ID NO:1 was added to a maximum concentration of 2.9 μM; (D-Ser)-Phe-Leu-Leu-Arg-Asn-Pro-Asn-Asp-Lys-Tyr SEQ IS NO:11 was added to a maximum concentration of 940 μM; Ser-Phe-Leu-Leu-Arg-Asn amino acids 1 to 6 of SEQ ID NO:1 was added to a maximum concentration of 1.7 μM; (iso-Ser)-Phe-Leu-Leu-Arg-Asn SEQ ID NO:7 was added up to a maximum concentration of 4.9 μM.

plasma aminopeptidase M [4] = test system: T3, plasma aminopeptidase M; experiment: Peptide digestion during incubation with platelet-poor plasma, HPLC; type: in vitro ADME, human; conditions: human; for remaining at 2 h, 1 mM: 120 min; for metabolised at 2 h, 1 mM: incubated with plasma at 37° C., about two hours, read-out: peptide cleavage
T3 construct: from tissue; host or cells: human citrated platelet-poor plasma
Protocol: as §2, §3, §4, §5

aminopeptidase M = aminopeptidase M (Homo sapiens, UniProt P15144); conditions: Coller et al. 1992; not with thrombin; cited from earlier work
plasma aminopeptidase M [5] = molecular target: T1, plasma aminopeptidase M; conditions: previously demonstrated, Coller et al. 1992; cited from earlier work
gel-filtered platelets = conditions: Vu et al. 1991; cited from earlier work
[6] = 50% citrated platelet-poor plasma, 1 mM final, 50% platelet-poor plasma, 37° C., read-out: percentage remaining intact
[7] = 1 mM final, 50% platelet-poor plasma, 37° C., 2 hours

T1 sequence (P15144 whole entry): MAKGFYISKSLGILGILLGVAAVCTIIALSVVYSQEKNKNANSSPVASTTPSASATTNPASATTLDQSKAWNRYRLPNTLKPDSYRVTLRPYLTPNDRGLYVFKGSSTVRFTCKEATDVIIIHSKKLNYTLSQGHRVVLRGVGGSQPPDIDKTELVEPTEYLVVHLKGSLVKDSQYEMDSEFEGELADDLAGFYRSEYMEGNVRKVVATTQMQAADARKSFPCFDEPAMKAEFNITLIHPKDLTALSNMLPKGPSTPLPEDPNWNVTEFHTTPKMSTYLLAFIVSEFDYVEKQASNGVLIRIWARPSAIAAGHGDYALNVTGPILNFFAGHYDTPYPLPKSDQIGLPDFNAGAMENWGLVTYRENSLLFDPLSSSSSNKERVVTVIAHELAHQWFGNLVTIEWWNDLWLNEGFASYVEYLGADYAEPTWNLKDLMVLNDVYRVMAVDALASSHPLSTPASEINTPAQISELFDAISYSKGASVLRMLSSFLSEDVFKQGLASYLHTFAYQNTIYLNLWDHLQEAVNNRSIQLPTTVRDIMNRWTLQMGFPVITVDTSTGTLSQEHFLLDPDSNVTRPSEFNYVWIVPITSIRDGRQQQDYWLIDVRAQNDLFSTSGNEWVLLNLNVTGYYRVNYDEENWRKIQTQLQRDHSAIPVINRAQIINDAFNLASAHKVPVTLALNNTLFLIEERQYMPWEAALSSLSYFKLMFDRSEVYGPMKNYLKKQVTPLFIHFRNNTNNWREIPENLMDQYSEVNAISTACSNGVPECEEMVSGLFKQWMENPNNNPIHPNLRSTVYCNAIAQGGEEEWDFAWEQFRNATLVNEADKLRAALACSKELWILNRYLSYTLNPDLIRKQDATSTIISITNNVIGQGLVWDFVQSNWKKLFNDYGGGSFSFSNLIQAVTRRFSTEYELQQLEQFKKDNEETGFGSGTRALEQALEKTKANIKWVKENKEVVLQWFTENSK
Chain of aminopeptidase M (P15144 whole entry, species assumed): as the sequence (P15144 whole entry) above

Compound: CC(C)C[C@H](NC(=O)[C@H](Cc1ccccc1)NC(=O)[C@H](N)CO)C(=O)N[C@@H](CC(C)C)C(=O)N[C@@H](CCCNC(=N)N)C(=O)N[C@@H](CC(N)=O)C(=O)N1CCC[C@H]1C(=O)N[C@@H](CC(N)=O)C(=O)N[C@@H](CC(=O)O)C(=O)N[C@@H](CCCCN)C(=O)N[C@@H](Cc1ccc(O)cc1)C(N)=O [(DS)T-11, (D-Ser)-Phe-Leu-Leu-Arg-Asn-Pro-Asn-Asp-Lys-Tyr] (H-[dS]FLLRNPNDKY-NH2)
aggregating activity retained after plasma incubation (plasma aminopeptidase M [1]; incubated with plasma for 1 hour): retained more than half its aggregating activity
peptide cleavage (in words) (plasma aminopeptidase M [2]; 2 mM peptide, platelet-poor plasma, 37° C., 2 hours): did not undergo any identifiable cleavage

platelet activating activity relative to SFLLRN ([3]; citrated PRP): 15-20%
platelet aggregating activity (in words) ([3]; citrated PRP): substantially active
EC50 ([3]; citrated PRP, 37° C., read-out: concentration to achieve half-maximal aggregation): ~4 µM
slope of platelet disaggregation phase ([3]; peptide at 3.7 μM, dose giving equivalent peak aggregation response): 4 U/min
aggregating activity after plasma incubation (plasma aminopeptidase M [1]; 45 min): retained its full aggregating activity
aggregating activity after plasma incubation (plasma aminopeptidase M [1]; 1 hour): some decrease in activity
aggregating activity after plasma incubation (plasma aminopeptidase M [1]; 2 hours): some aggregating activity remained
platelet aggregating activity when incubated in plasma (plasma aminopeptidase M [1]; 37° C.): lost little if any activity
peptide activity after incubation with buffer rather than plasma (plasma aminopeptidase M [1]; buffer, 37° C., 2 hours): no decrease in peptide activity
platelet aggregating activity after plasma incubation (plasma aminopeptidase M [1]; plasma at 37° C., at least two hours): remained unchanged
remaining at 2 h, 1 mM (plasma aminopeptidase M [4]; [6]): ~83%
metabolised at 2 h, 1 mM (plasma aminopeptidase M [4]; citrated platelet-poor plasma): ~17%
extent of digestion (in words) (plasma aminopeptidase M [2]; [7]): minimal digestion
peptide remaining intact (in words) (plasma aminopeptidase M [2]; 1 mM final, 50% platelet-poor plasma, 37° C., first 60 min): Virtually all
peptide cleavage (in words) (plasma aminopeptidase M [2]; incubated with plasma at 37° C., 45 minutes): did not undergo identifiable cleavage
Compound: CC(C)C[C@H](NC(=O)[C@H](Cc1ccccc1)NC(=O)C(O)CN)C(=O)N[C@@H](CC(C)C)C(=O)N[C@@H](CCCNC(=N)N)C(=O)N[C@@H](CC(N)=O)C(N)=O (stereo partly drawn) [(iso-S)FLLRN, (iso-Ser)-Phe-Leu-Leu-Arg-Asn-NH2] (ξIsoserine-FLLRN-NH2)

time to loss of all aggregating activity (plasma aminopeptidase M [1]; 125 μM peptide incubated with plasma): ≤ 18 min
time to decrease of platelet aggregating activity (plasma aminopeptidase M [1]; incubated with plasma at 37° C.): ≤ 15 min
platelet aggregating activity after plasma incubation (plasma aminopeptidase M [1]; plasma at 37° C., 60 minutes): nearly lost
metabolised at 0.25 h, 1 mM (plasma aminopeptidase M [4]; 50% citrated platelet-poor plasma, 1 mM final, 50% platelet-poor plasma, 37° C., 15 min, read-out: peptide no longer intact): 35%
remaining at 0.5 h, 1 mM (plasma aminopeptidase M [4]; 50% citrated platelet-poor plasma, 1 mM final, 50% platelet-poor plasma, 37° C., 30 min, read-out: percentage remaining intact): 49%
remaining at 0.75 h, 1 mM (plasma aminopeptidase M [4]; 50% citrated platelet-poor plasma, 1 mM final, 50% platelet-poor plasma, 37° C., 45 min, read-out: percentage remaining intact): 23%
remaining at 1 h, 1 mM (plasma aminopeptidase M [4]; 50% citrated platelet-poor plasma, 1 mM final, 50% platelet-poor plasma, 37° C., 60 min, read-out: percentage remaining intact): 16%
remaining at 2 h, 1 mM (plasma aminopeptidase M [4]; [6]): 4%
metabolised at 2 h, 1 mM (plasma aminopeptidase M [4]; citrated platelet-poor plasma): 96%
time to detectable cleavage (plasma aminopeptidase M [2]; 1 mM final, 50% platelet-poor plasma, 37° C.): ≤ 10 min
extent of digestion (in words) (plasma aminopeptidase M [2]; [7]): nearly complete digestion
Compound: CC(C)C[C@H](NC(=O)[C@H](CC(C)C)NC(=O)[C@H](Cc1ccccc1)NC(=O)[C@@H](N)CO)C(=O)N[C@@H](CCCN=C(N)N)C(=O)N[C@@H](CC(N)=O)C(N)=O [SFLLRN]
platelet aggregating activity when incubated in plasma (plasma aminopeptidase M [1]; 37° C.): rapidly lost platelet aggregating activity

Compound: CC(C)C[C@@H](N)[C@H](O)C(=O)N[C@H](C(=O)N[C@H](C(=O)N[C@@H](CC(=O)O)C(=O)O)C(C)C)C(C)C [amastatin]
effect on aggregation induced by T-11 (aminopeptidase M): enhanced aggregation induced by T-11

time to loss of all aggregating activity (plasma aminopeptidase M [1]; incubated with plasma): ≤ 60 min
incubation time sufficient to produce significant inhibition of aggregating ability (plasma aminopeptidase M [1]; preincubation in plasma at 37° C.): ≤ 10 min
remaining at 2 h, 2 mM (plasma aminopeptidase M [4]; citrated platelet-poor plasma, 2 mM peptide, platelet-poor plasma, 37° C., 2 hours, read-out: peptide remaining intact): 34%
Compound: SFLLRNPNDKY-NH2 [T-11, Ser-Phe-Leu-Leu-Arg-Asn-Pro-Asn-Asp-Lys-Tyr]
aggregating activity when incubated in plasma (plasma aminopeptidase M [5]): lost aggregating activity
platelet aggregating ability after preincubation in plasma (plasma aminopeptidase M [1]; plasma at 37° C.): progressive loss of platelet aggregating ability

Compound: SFLLRNPNDKYEPF [T-14, 14 amino acid peptide mimicking the new amino terminus of the cleaved thrombin receptor]
aggregation of gel-filtered platelets (gel-filtered platelets): able to aggregate gel-filtered platelets directly
aggregating activity when incubated in plasma (plasma aminopeptidase M [5]): lost aggregating activity
